Experimental data from patent US10005768B2, “Carboxamide derivatives and use thereof” (Purdue Pharma L.P., priority 2013, dated 2018).

Biological target: human Nav1.7 (Homo sapiens (Human), UniProt Q15858)
Test: FLIPR sodium dye assay (CoroNa Green AM Na+ dye, primary fluorescence assay)
Type: cell-based
Settings: recombinant Nav1.7/HEK293 cells
Description: In vitro assays were performed in a recombinant cell line expressing cDNA encoding the alpha subunit (Nav1.7, SCN9a, PN1, NE) of human Nav1.7 (Accession No. NM_002977). The cell line was provided by investigators at Yale University (Cummins et al, J. Neurosci. 18(23): 9607-9619 (1998)). For dominant selection of the Nav1.7-expressing clones, the expression plasmid co-expressed the neomycin resistance gene. The cell line was constructed in the human embryonic kidney cell line, HEK293, under the influence of the CMV […] promoter, and stable clones were selected using limiting dilution cloning and antibiotic selection using the neomycin analogue, G418. Recombinant beta and gamma subunits were not introduced into this cell line. Additional cell lines expressing recombinant Nav1.7 cloned from other species can also be used, alone or in combination with various beta subunits, gamma subunits or chaperones.
Unless otherwise noted, cell culture reagents were purchased from Mediatech of Herndon, Va. The recombinant Nav1.7/HEK293 cells were routinely cultured in growth medium consisting of Dulbecco's […] essential medium containing 10% fetal bovine serum (FBS, Hyclone, Thermo Fisher Scientific, Logan, Utah), 100 U/mL penicillin, 100 μg/mL streptomycin, 2-4 mM L-glutamine, and […] G418. For natural, non-recombinant cell lines, the selective antibiotic was omitted, and additional media formulations can be applied as needed.
The final buffer consisted of 20 mM Hepes, pH 7.3, 1.261 mM CaCl2, 0.493 mM MgCl2, 0.407 mM Mg(SO)4, 5.33 mM KCl, 0.441 mM KH2PO4, 137 mM NaCl, 0.336 mM Na2HPO4 and […] D-glucose (Hanks et al., Proc. Soc. Exp. Biol. Med. 71:196 (1949)), and the simple formulation was typically the basic buffer throughout the assay (i.e., all wash and addition steps).
The fluorescence indicator used in the primary fluorescence assay was the cell permeant version of CoroNa™ Green (Invitrogen, Molecular Probes, Eugene, Oreg.), a dye that emits light in the fluorescence range (Harootunian et al., J. Biol. Chem. 264(32):19458-19467 (1989)). The intensity of this emission, but not the wavelength range, is increased when the dye is exposed to Na^+ ions, which it can bind with partial selectivity. Cells expressing Nav1.7 or other sodium channels were loaded with the CoroNa™ Green dye immediately in advance of the fluorescence assay, and then, after agonist stimulation, the mobilization of Na^+ ions was detected as the Na^+ ions flowed from the extracellular fluid into the cytoplasm through the activated sodium channel pores. The dye was stored in the dark as a lyophilized powder, and then an aliquot was dissolved immediately before the cell loading procedure, according to the instructions of the manufacturer, to a stock concentration of 10 mM in DMSO. It was then diluted in the assay buffer to a 4× concentrated working solution, so that the final concentration of dye in the cell loading buffer was 5 μM.
In the fluorescence assays, two agonists were used in combination, namely 1) veratridine; and 2) the venom from the yellow scorpion, Leiurus quinquestriatus hebraeus. Veratridine is an alkaloid small molecule that facilitates the capture of channel openings by inhibiting inactivation, and the scorpion venom is a natural preparation that includes peptide toxins selective for different subsets of voltage-gated sodium channels. These scorpion toxins inhibit the fast inactivation of their cognate target channels. Stock solutions of the agonists were prepared to 40 mM in DMSO (veratridine) and 1 mg/mL in dH2O (scorpion venom), and then diluted to make a 4× or 2× stock (depending on the particular assay) in assay buffer, the final concentration being 100 μM (veratridine) and 10 μg/mL (scorpion venom). Both of the agonists were purchased from Sigma Aldrich, St. Louis, Mo.
Test compounds were dissolved in DMSO to yield 10 mM stock solutions. […]

Sequence of human Nav1.7 (Q15858 other isoform, or with tags, fused parts or gaps): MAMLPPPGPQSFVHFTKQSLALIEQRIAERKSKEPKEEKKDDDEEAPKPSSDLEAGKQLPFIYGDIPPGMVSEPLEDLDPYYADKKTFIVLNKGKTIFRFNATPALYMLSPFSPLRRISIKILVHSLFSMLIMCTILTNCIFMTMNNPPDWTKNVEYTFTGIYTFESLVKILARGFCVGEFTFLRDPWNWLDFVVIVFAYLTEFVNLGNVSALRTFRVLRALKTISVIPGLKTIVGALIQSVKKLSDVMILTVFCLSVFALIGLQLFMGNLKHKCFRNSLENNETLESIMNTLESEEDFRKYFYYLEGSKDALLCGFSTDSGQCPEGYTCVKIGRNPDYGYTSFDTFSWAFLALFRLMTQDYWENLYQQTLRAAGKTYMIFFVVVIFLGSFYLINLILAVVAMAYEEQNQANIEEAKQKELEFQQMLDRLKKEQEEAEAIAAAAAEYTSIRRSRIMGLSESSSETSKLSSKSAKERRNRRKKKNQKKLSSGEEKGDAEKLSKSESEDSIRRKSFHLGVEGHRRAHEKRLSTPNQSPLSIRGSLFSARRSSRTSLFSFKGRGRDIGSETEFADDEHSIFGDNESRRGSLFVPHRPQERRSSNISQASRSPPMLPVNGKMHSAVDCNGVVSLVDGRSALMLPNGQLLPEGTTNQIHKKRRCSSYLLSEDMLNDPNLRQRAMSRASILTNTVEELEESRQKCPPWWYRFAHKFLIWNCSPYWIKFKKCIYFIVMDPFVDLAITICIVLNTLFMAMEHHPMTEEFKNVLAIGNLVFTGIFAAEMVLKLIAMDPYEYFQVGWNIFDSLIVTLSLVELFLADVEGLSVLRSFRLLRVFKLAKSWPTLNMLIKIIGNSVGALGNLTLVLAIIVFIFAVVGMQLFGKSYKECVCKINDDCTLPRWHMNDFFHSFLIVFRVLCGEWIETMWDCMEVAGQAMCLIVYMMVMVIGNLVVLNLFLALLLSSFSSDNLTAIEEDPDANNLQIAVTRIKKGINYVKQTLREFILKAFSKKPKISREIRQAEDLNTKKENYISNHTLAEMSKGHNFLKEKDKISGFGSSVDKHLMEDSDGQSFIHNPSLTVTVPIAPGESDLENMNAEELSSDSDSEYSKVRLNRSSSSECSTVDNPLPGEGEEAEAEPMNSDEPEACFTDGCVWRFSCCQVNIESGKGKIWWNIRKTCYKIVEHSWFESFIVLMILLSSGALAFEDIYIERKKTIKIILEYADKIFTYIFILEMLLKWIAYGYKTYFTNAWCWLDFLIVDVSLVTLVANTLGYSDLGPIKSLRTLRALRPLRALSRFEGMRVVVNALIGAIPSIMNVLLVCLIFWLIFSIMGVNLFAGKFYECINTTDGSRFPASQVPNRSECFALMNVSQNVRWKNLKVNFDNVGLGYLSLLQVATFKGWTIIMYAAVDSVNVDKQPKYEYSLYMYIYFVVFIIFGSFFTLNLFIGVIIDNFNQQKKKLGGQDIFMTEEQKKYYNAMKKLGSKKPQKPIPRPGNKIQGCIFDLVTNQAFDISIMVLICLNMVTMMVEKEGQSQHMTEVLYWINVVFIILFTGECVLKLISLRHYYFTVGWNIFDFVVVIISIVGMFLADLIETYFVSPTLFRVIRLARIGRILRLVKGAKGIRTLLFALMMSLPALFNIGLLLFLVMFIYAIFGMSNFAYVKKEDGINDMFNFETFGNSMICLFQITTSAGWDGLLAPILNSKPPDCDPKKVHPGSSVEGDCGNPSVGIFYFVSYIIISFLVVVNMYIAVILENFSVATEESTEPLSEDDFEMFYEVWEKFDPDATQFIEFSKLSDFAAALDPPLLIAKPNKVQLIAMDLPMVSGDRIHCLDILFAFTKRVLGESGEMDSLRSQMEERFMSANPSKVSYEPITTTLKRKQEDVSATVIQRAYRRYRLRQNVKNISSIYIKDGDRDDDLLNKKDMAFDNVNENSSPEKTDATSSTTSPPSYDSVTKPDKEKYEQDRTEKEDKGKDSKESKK

IC50 [µM] | SMILES
0.221 ± 0.049 | CN1CCN(Cc2cc(C(F)(F)F)ccc2Oc2ccc(-c3cccc(C(N)=O)n3)cc2)CC1 [compound 33, 6-(4-(2-((4-methylpiperazin-1-yl)methyl)-4-(trifluoromethyl)-phenoxy)phenyl)picolinamide]
1.77 ± 0.57 | NC(=O)c1cccc(-c2ccc(Oc3ccc(C(F)(F)F)cc3CNCCN3CCNC3=O)cc2)n1 [compound 34, 6-(4-(2-(((2-(2-oxoimidazolidin-1-yl)ethyl)amino)methyl)-4-(trifluoromethyl)phenoxy)phenyl) picolinamide]
0.141 ± 0.022 | NC(=O)c1cccc(-c2ccc(Oc3ccc(C(F)(F)F)cc3CN3CCNC(=O)C3)cc2)n1 [compound 35, 6-(4-(2-((3-oxopiperazin-1-yl)methyl)-4-(trifluoromethyl)-phenoxy)phenyl)picolinamide]
0.432 ± 0.131 | NC(=O)c1cccc(-c2ccc(Oc3ccc(C(F)(F)F)cc3CN3CC[C@H](O)C3)cc2)n1 [compound 36, (S)-6-(4-(2-((3-hydroxypyrrolidin-1-yl)methyl)-4-(trifluoromethyl)-phenoxy)phenyl)picolinamide]
1.07 ± 0.117 | CN(C)CCN(C)Cc1cc(C(F)(F)F)ccc1Oc1ccc(-c2cccc(C(N)=O)n2)cc1 [compound 37, 6-(4-(2-(((2-(dimethylamino)-ethyl)(methyl)amino)methyl)-4-(trifluoromethyl)phenoxy)-phenyl)picolinamide]
1.69 ± 0.157 | CN(C)CCCNCc1cc(C(F)(F)F)ccc1Oc1ccc(-c2cccc(C(N)=O)n2)cc1 [compound 38, 6-(4-(2-(((3-(dimethylamino)-propyl)amino)methyl)-4-(trifluoromethyl)phenoxy)phenyl) picolinamide]
0.179 ± 0.034 | CN(C)Cc1cc(C(F)(F)F)ccc1Oc1ccc(-c2cccc(C(N)=O)n2)cc1 [compound 39, 6-(4-(2-((dimethylamino)methyl)-4-(trifluoromethyl)phenoxy)-phenyl)picolinamide]
1.68 ± 0.177 | NC(=O)c1cccc(-c2ccc(Oc3ccc(C(F)(F)F)cc3CNCCO)cc2)n1 [compound 40, 6-(4-(2-(((2-hydroxyethyl)-amino)methyl)-4-(trifluoro-methyl)phenoxy)phenyl)picolin-amide]
1.13 ± 0.1 | NC(=O)c1cccc(-c2ccc(Oc3ccc(C(F)(F)F)cc3CN3CCC[C@H]3CO)cc2)n1 [compound 41, (S)-6-(4-(2-((2-(hydroxyl-methyl)pyrrolidin-1-yl)methyl)-4-(trifluoromethyl)phenoxy)phenyl) picolinamide]
1.17 ± 0.186 | NC(=O)c1cccc(-c2ccc(Oc3ccc(C(F)(F)F)cc3CN3CCC[C@@H]3CO)cc2)n1 [compound 42, (R)-6-(4-(2-((2-(hydroxyl-methyl)pyrrolidin-1-yl)methyl)-4-(trifluoromethyl)phenoxy)phenyl) picolinamide]
0.223 ± 0.018 | NC(=O)c1cccc(-c2ccc(Oc3ccc(C(F)(F)F)cc3CN3CCOCC3)cc2)n1 [compound 43, 6-(4-(2-(morpholinomethyl)-4-(trifluoromethyl)phenoxy)phenyl) picolinamide]
1.16 ± 0.076 | NC(=O)c1cccc(-c2ccc(Oc3ccc(C(F)(F)F)cc3CN3CCC[C@H]3C(N)=O)cc2)n1 [compound 44, (S)-6-(4-(2-((2-carbamoyl-pyrrolidin-1-yl)methyl)-4-(trifluoromethyl)phenoxy)phenyl) picolinamide]
0.113 ± 0.034 | NC(=O)c1cccc(-c2ccc(Oc3ccc(C(F)(F)F)cc3CN3CCC(F)(F)C3)cc2)n1 [compound 45, 6-(4-(2-((3,3-difluoropyrrolidin-1-yl)methyl)-4-(trifluoromethyl)phenoxy)phenyl) picolinamide]
2.58 ± 0.692 | NC(=O)c1cccc(-c2ccc(Oc3ccc(C(F)(F)F)cc3CN[C@H]3CCNC3=O)cc2)n1 [compound 46, (S)-6-(4-(2-(((2-oxopyrrolidin-3-yl)amino)methyl)-4-(trifluoro-methyl)phenoxy)phenyl)picolin-amide]
0.949 ± 0.168 | CC(C)(C)OC(=O)NC1CCN(Cc2cc(C(F)(F)F)ccc2Oc2ccc(-c3cccc(C(N)=O)n3)cc2)C1 (stereo not shown) [compound 47, tert-butyl (1-(2-(4-(6-carbamoylpyridin-2-yl)phenoxy)-5-(trifluoromethyl)-benzyl)pyrrolidin-3-yl)carbamate]
0.913 ± 0.016 | CC(C)(C)OC(=O)N1CCC(NCc2cc(C(F)(F)F)ccc2Oc2ccc(-c3cccc(C(N)=O)n3)cc2)C1 (stereo not shown) [compound 48, tert-butyl 3-((2-(4-(6-carbamoylpyridin-2-yl)phenoxy)-5-(trifluoromethyl)benzyl)-amino)pyrrolidine-1-carboxylate]
0.096 ± 0.01 | NC(=O)c1cccc(-c2ccc(Oc3ccc(C(F)(F)F)cc3CN3CCCCC3)cc2)n1 [compound 49, 6-(4-(2-(piperidin-1-ylmethyl)-4-(trifluoromethyl)phenoxy)phenyl) picolinamide]
0.768 ± 0.051 | NC(=O)c1cccc(-c2ccc(Oc3ccc(C(F)(F)F)cc3CN3CCC3)cc2)n1 [compound 50, 6-(4-(2-(azetidin-1-ylmethyl)-4-(trifluoromethyl)phenoxy)phenyl) picolinamide]
0.566 ± 0.062 | NC(=O)c1cccc(-c2ccc(Oc3ccc(C(F)(F)F)cc3CN3CCCC(O)C3)cc2)n1 (stereo not shown) [compound 51, 6-(4-(2-((3-hydroxypiperidin-1-yl)methyl)-4-(trifluoromethyl)-phenoxy)phenyl)picolinamide]
1.1 ± 0.107 | CN(CCO)Cc1cc(C(F)(F)F)ccc1Oc1ccc(-c2cccc(C(N)=O)n2)cc1 [compound 52, 6-(4-(2-(((2-hydroxyethyl)-(methyl)amino)methyl)-4-(trifluoromethyl)phenoxy)phenyl) picolinamide]
0.384 ± 0.106 | NC(=O)c1cccc(-c2ccc(Oc3ccc(C(F)(F)F)c(CN4CCC4)c3)cc2)n1 [compound 53, 6-(4-(3-(azetidin-1-ylmethyl)-4-(trifluoromethyl)phenoxy)phenyl) picolinamide]
0.366 ± 0.085 | NC(=O)c1cccc(-c2ccc(Oc3ccc(C(F)(F)F)c(CN4CC[C@H](O)C4)c3)cc2)n1 [compound 54, (S)-6-(4-(3-((3-hydroxy-pyrrolidin-1-yl)methyl)-4-(trifluoromethyl)phenoxy)-phenyl)picolinamide]
0.174 ± 0.018 | NC(=O)c1cccc(-c2ccc(Oc3ccc(C(F)(F)F)c(CNCCC(F)(F)F)c3)cc2)n1 [compound 55, 6-(4-(4-(trifluoromethyl)-3-(((3,3,3-trifluoropropyl)amino)-methyl)phenoxy)phenyl)picolin-amide]
0.173 ± 0.033 | NC(=O)c1cccc(-c2ccc(Oc3ccc(C(F)(F)F)c(CN4CCCC4)c3)cc2)n1 [compound 56, 6-(4-(3-(pyrrolidin-1-ylmethyl)-4-(trifluoromethyl)phenoxy)phenyl) picolinamide]
0.231 ± 0.008 | CC(c1cc(C(F)(F)F)ccc1Oc1ccc(-c2cccc(C(N)=O)n2)cc1)N1CCCC1 (stereo not shown) [compound 58, 6-(4-(2-(1-(pyrrolidin-1-yl)ethyl)-4-(trifluoromethyl)phenoxy)-phenyl)picolinamide]
> 20 | NC(=O)c1cccc(-c2ccc(Oc3cccc(CN4CCCC4)n3)cc2)n1 [compound 59, 6-(4-((6-(pyrrolidin-1-ylmethyl)pyridin-2-yl)oxy)phenyl)picolinamide]
1.85 ± 0.361 | NC(=O)c1cccc(-c2ccc(Oc3ccc(C(F)(F)F)cc3CN3CCC(N)C3)cc2)n1 (stereo not shown) [compound 60, 6-(4-(2-((3-aminopyrrolidin-1-yl)methyl)-4-(trifluoromethyl)-phenoxy)phenyl)picolinamide]
2.04 ± 0.06 | NC(=O)c1cccc(-c2ccc(Oc3ccc(C(F)(F)F)cc3CNC3CCNC3)cc2)n1 (stereo not shown) [compound 61, 6-(4-(2-((pyrrolidin-3-ylamino)methyl)-4-(trifluoromethyl)phenoxy)phenyl) picolinamide]
